Source: paper PMC6394990, “Detailed characterization of the solution kinetics and thermodynamics of biotin, biocytin and HABA binding to avidin and streptavidin” (PLoS ONE, 2019)
Several values for one entry are separate records, joined by “and”; a condition that tells them apart may be missing. Equal values may be shown once.

Experiments:
[1] = Fluorescence lifetimes, unbound probe; type: physicochemical; conditions: unbound dye; t for BFl and BcO, average lifetime for B-DNAds*Fl; in ns
Protocol: (§1) The lifetimes (τ), steady state anisotropies (rss), time-resolved anisotropies (rt) and quantum yields (QY) of the complexes (at 20 ± 0.1°C and pH 8) were collected with a dye-labeled B7 probe concentration of 20–40 nM and 1040–2080 nM of either protein (AV or SAV) to ensure that only one binding site in the tetramer was filled with a ligand (AB1 filling model).
(§2) The lifetimes were collected in a FluoTime100 fluorescence spectrometer (PicoQuant, GmbH, Berlin, Germany) with the excitation light source provided by a picosecond pulsed diode laser (PicoQuant, GmbH, Berlin, Germany) at 470 nm and 20 MHz. The emission was collected at 520 nm through a non-fluorescing 520 nm interference filter (Oriel Corp., Stratford, CT) followed by a liquid filter of 1cm path length containing 24 mM acetate buffered dichromate at pH 4, between the sample and detector to eliminate traces of excitation light. The fluorescence decays were fit by a nonlinear least-squares minimization based on the Marquardt algorithm embedded in the Fluofit software (PicoQuant GmbH). […] The PicoQuant G factor was calculated according to: G = ∫HV(t)dt/∫HH(t)dt, where HV(t) and HH(t) were the decays collected with the emission polarizer selecting vertical and horizontal E-vector passing orientations, respectively, and the excitation polarizer set at horizontally position.

streptavidin (SAV) [2] = target: T1, streptavidin (SAV) (Streptomyces avidinii, UniProt P22629); test: Steady-state anisotropy (rss), SAV complex; type: physicochemical; conditions: for Steady State Anisotropy rss: SAV complex (AB1), 20°C; for SAV-increment (%): increase of rss against unbound; for rss, + SAV: steady-state anisotropy
T1 construct: purchased Sigma Aldrich (St. Louis, MO)
Protocol: as §1
The rss measurements were collected using the Giblin-Parkhurst modification of the Wampler-Desa method as described previously. The fluorescence signal was detected in a model A-1010 Alphascan fluorimeter (Photon Technologies, Inc., Birmingham, NJ) equipped with an R928 PMT (Hamamatsu, Bridgewater, NJ). The excitation was provided by an Ar^+ ion laser (Coherent Innova 70–4 Argon, Santa Clara, CA) at 488 nm and 5–10 mW of power incident on the sample. A photoelastic modulator (PEM-80; HINDS International, Inc., Portland, OR) was placed between the laser source and the sample compartment with a retardation level of 1.22π, and the PEM stress axis orientated 45° with respect to the E vector of the laser beam. Two signals were acquired with the PEM alternating between “on” and “off” positions for 10 seconds and the data fitted to a least squared straight line to minimize noise. A minimum of six of these independent measurements were averaged to acquire the rss values. The fluorimeter G factor was determined using a film polarizer and analyzer with an excitation at 488 nm provided by a xenon arc lamp (model A1010, Photon Technologies Inc, Princeton, NJ). The dissociation reactions of dye-labeled B7 and protein complexes were monitored by fluorescence changes and were also collected in the fluorimeter described above.

de-glycosylated AV = target: T2, de-glycosylated AV (Gallus gallus, UniProt P02701); test: Stopped-flow association kinetics with endoglycosidase H de-glycosylated avidin; type: binding
T2 construct: purchased Calbiochem (La Jolla, CA)
Protocol: These reactions were carried out in a buffered solution of 10 mM Tris-HCl, 100 mM KCl, 2.5 mM MgCl2 and 1 mM CaCl2 at pH 8 and only AV-BcO reactions included pH 9 and 10. The concentrations, after mixing, were of 20 nM of dye-labeled B7 probe and 260 nM, 520 nM or 1040 nM of AV; and 200 nM, 300 nM, 400 nM or 800 nM of SAV at temperatures of 10, 15, 20 and 25°C. The deglycosylation of AV (for comparative association reactions) was carried out using the provided standard protocol with endoglycosidase H [47], both with and without incubation of a denaturant solution (2% SDS and 1M 2-mercaptoethanol).
The reactions were collected with the SF instrument, described previously. The fluorescence signal was collected through a 520 nm interference filter (Oriel Corp., Stratford, CT) with a detector time constant and SF dead time of 1 μs and 1 ms, respectively. The excitation light was provided by the Coherent Ar^+ ion laser (described above) at 488 nm with […] of incident power on the reaction cuvette. The laser source was followed by the photo-elastic modulator described above with the axis oriented 45^o with respect to the electric vector of the incident light and with the half-wave modulation (50 kHz) set for 488 nm excitation. The demodulation circuitry following the photomultiplier provided a DC(t) and a rectified AC(t) which were converted to digital data by a high-speed digitizer (PCI-5122) from National Instruments (Austin, TX) with 14-bit resolution and 100 MHz bandwidth, through channels 0 and 1. The data acquisition was controlled by LabVIEW (Vr 8) software at a collection rate of 6120 data points/second and stored in spreadsheets. The AC(t) and DC(t) data were baseline corrected before obtaining the signal ratio (Eq 4) as a function of time (ρt).

avidin (AV) = target: T3, avidin (AV) (Gallus gallus, UniProt P02701); test: Fluorescence lifetimes, AV complex; type: physicochemical; conditions: for Lifetime τ: AV complex (AB1), 20°C, pH 8; for t (1), fluorescence lifetime: complex with AV, t for BFl and BcO, average lifetime for B-DNAds*Fl, in ns
T3 construct: purchased Calbiochem (La Jolla, CA)
Protocol: as §1
The lifetimes were collected in a FluoTime100 fluorescence spectrometer (PicoQuant, GmbH, Berlin, Germany) with the excitation light source provided by a picosecond pulsed diode laser (PicoQuant, GmbH, Berlin, Germany) at 470 nm and 20 MHz. The emission was collected at 520 nm through a non-fluorescing 520 nm interference filter (Oriel Corp., Stratford, CT) followed by a liquid filter of 1cm path length containing 24 mM acetate buffered dichromate at pH 4, between the sample and detector to eliminate traces of excitation light. The fluorescence decays were fit by a nonlinear least-squares minimization based on the Marquardt algorithm embedded in the Fluofit software (PicoQuant GmbH). Twenty-eight decays were collected per sample, the decays were grouped in four sets, consisting of seven sample decays and one Instrument Response Function, IRF, for deconvolution proposes. The decay sets were globally fitted to mono- or bi-exponential decay models that were discriminated using the statistical parameter χ^2. The rt data were acquired with the fluorimeter described above equipped with a polarizer and an analyzer to acquire the parallel VV(t) and perpendicular VH(t) decays. The PicoQuant G factor was calculated according to: G = ∫HV(t)dt/∫HH(t)dt, where HV(t) and HH(t) were the decays collected with the emission polarizer selecting vertical and horizontal E-vector passing orientations, respectively, and the excitation polarizer set at horizontally position.

streptavidin (SAV) [3] = target: T1, streptavidin (SAV); test: Time-resolved anisotropy, cone angle, SAV complex; type: physicochemical; conditions: complex with SAV
Protocol: as §1
as §2, with “The emission was collected at 520 nm through a non-fluorescing 520 nm interference filter (Oriel Corp., Stratford, CT) followed by a liquid filter of 1cm path length containing 24 mM acetate buffered dichromate at pH 4, between the sample and detector to eliminate traces of excitation light.” left out, “position. […]” for “position.”
In a simple model, the transition moment is assumed to wobble within a cone of semi-apical angle Ω [59], where the cone axis is normal to the surface of a sphere that corresponds to the macromolecule. The angle Ω is calculated from Eq 14.

[4] = Quantum yields (QY), unbound probe; type: physicochemical; conditions: unbound dye
Protocol: as §1
The QY values were obtained by using a reference fluorophore of known quantum yield and were calculated according to Parker and Rees, where the reference dye was fluorescein in 0.1N sodium hydroxide solution [46]. The emission fluorescence scans were collected from 480 nm to 700 nm with the excitation light set at 460 nm provided by the xenon arc lamp described above. These measurements were made on the AB1 complexes at high protein concentration.

T1 sequence (P22629 25-183): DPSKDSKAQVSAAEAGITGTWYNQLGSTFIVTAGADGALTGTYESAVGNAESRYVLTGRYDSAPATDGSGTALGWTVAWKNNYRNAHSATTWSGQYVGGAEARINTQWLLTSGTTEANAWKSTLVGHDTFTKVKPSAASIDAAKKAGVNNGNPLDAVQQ
T3 sequence (P02701 25-152): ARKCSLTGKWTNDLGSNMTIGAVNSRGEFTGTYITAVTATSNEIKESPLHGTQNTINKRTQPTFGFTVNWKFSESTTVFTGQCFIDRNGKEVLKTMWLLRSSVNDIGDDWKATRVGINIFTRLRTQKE
T2 sequence (P02701 25-152): as above

O=C(CCCC[C@@H]1SC[C@@H]2NC(=O)N[C@@H]21)NCCNC(=O)c1ccc(-c2c3ccc(=O)cc-3oc3cc(O)ccc23)c(C(=O)O)c1 [BFl, Biotin-4-fluorescein]
t (1), fluorescence lifetime [1]: 4.03 ± 0.01 | Steady State Anisotropy rss (streptavidin (SAV) [2]): 0.171 ± 0.008 | SAV-increment (%) (streptavidin (SAV) [2]): 714.3% | rss, + SAV (streptavidin (SAV) [2]): 0.171 | ln(k) (de-glycosylated AV; deAV 15C (288.15 K), pH8): 15.5 | k(average) (de-glycosylated AV; deAV 15C (288.15 K), pH8, full value): 5.36E+06 | k(average) (de-glycosylated AV; deAV 15C (288.15 K), pH8, scaled): 5.4 | Lifetime τ (avidin (AV)): 4.22 ± 0.01 ns | t (1), fluorescence lifetime (avidin (AV)): 4.22 ± 0.01 | W (streptavidin (SAV) [3]): 51 | 488, correction, absR/abs [4]: 1 | QY [4]: 0.52 and 0.52 ± 0.02 | QY multiplied by the 488 correction absR/abs [4]: 0.52

NC(CCCCNC(=O)CCCC[C@@H]1SC[C@@H]2NC(=O)N[C@@H]21)C(=O)NCCCCCNC(=O)c1ccc(-c2c3cc(F)c(=O)cc-3oc3cc(O)c(F)cc23)c(C(=O)O)c1 (stereo partly shown) [BcO, Oregon green 488 Biocytin]
t (1), fluorescence lifetime [1]: 3.75 ± 0.04 | Steady State Anisotropy rss (streptavidin (SAV) [2]): 0.053 ± 0.005 | SAV-increment (%) (streptavidin (SAV) [2]): 130.4% | rss, + SAV (streptavidin (SAV) [2]): 0.053 | kon (de-glycosylated AV; de-glycosylated AV, 15°C): 3.7e+06 M⁻¹ s⁻¹ | Lifetime τ (avidin (AV)): 4.35 ± 0.01 ns | t (1), fluorescence lifetime (avidin (AV)): 4.35 ± 0.01 | W (streptavidin (SAV) [3]): 50 | QY [4]: 0.91 and 0.91 ± 0.02
